Test results reported in patent US10596171B2, “Cap-dependent endonuclease inhibitors” (priority 2018, dated 2020).

What follows are compounds tested on influenza B virus (assay: microbe, parasite or virus in culture). Settings: MDCK, 72 h, read-out: EC50 (reduce virus-induced CPE by 50%).
Assay type: cell-based
`CC1CC12CN(C1c3ccccc3SCc3c1ccc(F)c3F)n1ccc(=O)c(O)c1C2=O` (stereo not drawn) [Compound 20] showed an EC50 of 0.1 to 1 µM.
`O=C1c2c(O)c(=O)ccn2N(C2c3ccc(Cl)cc3CSc3ccccc32)CC12CC2` (stereo not drawn) [Compound 4] was tested, and the EC50 was less than 0.1 µM.
For `Cc1cccc2c1SCc1ccccc1C2N1CC2(CC2)C(=O)c2c(O)c(=O)ccn21` (stereo not drawn) [Compound 11], the EC50 was 0.1 to 1 µM.
`[2H]c1c([2H])c([2H])c2c(c1[2H])SCc1c(ccc(F)c1F)[C@@H]2N1CC2(CC2)C(=O)c2c(O)c(=O)ccn21` [Compound 39] gave an EC50 of less than 0.1 µM.
Work on `Cc1cccc2c1SCc1cc(F)ccc1C2N1CC2(CC2)C(=O)c2c(O)c(=O)ccn21` (stereo not drawn) [Compound 7] yielded an EC50 of less than 0.1 µM.
With `CC1CC12CN(C1c3ccc(F)c(F)c3CSc3c(F)cccc31)n1ccc(=O)c(O)c1C2=O` (stereo not drawn) [Compound 35] the EC50 was less than 0.1 µM.
Compound `CCC1N(C2c3ccccc3SCc3c2ccc(F)c3F)n2ccc(=O)c(O)c2C(=O)C12CC2` (stereo not drawn) [Compound 22] has an EC50 of 0.1 to 1 µM.
`O=C1c2c(O)c(=O)ccn2N(C2c3ccc(Cl)c(F)c3CSc3c(F)cccc32)CC12CC2` (stereo not drawn) [Compound 24] showed an EC50 of less than 0.1 µM.
In the case of `O=C1c2c(O)c(=O)ccn2N(C2c3ccccc3CSc3c(Cl)cccc32)CC12CC2` (stereo not drawn) [Compound 13], the EC50 is reported as 0.1 to 1 µM.
`Cc1cccc2c1SCc1cc(Cl)ccc1C2N1CC2(CC2)C(=O)c2c(O)c(=O)ccn21` (stereo not drawn) [Compound 6] was tested, and the EC50 was 0.1 to 1 µM.
`Cc1cc(=O)c(O)c2n1N(C1c3ccc(F)c(F)c3CSc3c(F)cccc31)CC1(CC1)C2=O` (stereo not drawn) [Compound 30] showed an EC50 of 0.1 to 1 µM.
With `O=C1c2c(O)c(=O)ccn2N(C2c3ccccc3SCc3c2ccc(Cl)c3F)CC12CC2` (stereo not drawn) [Compound 19] the EC50 was 0.1 to 1 µM.
`O=C1c2c(O)c(=O)ccn2N(C2c3ccc(F)c(F)c3CSc3c(F)cccc32)CC12CC2` (stereo not drawn) [Compound 17] gave an EC50 of less than 0.1 µM.
With `CC1N(C2c3ccc(F)c(F)c3CSc3c(F)cccc32)n2ccc(=O)c(O)c2C(=O)C12CC2` (stereo not drawn) [Compound 26] the EC50 was 0.1 to 1 µM.
`Cc1cccc2c1SCc1c(ccc(F)c1F)C2N1CC2(CC2)C(=O)c2c(O)c(=O)ccn21` (stereo not drawn) [Compound 16] was tested, and the EC50 was 0.1 to 1 µM.
`Cc1cccc2c1SCc1c(ccc(F)c1F)C2N1CC2(CC2)C(=O)c2c(O)c(=O)cc(C)n21` (stereo not drawn) [Compound 31] showed an EC50 of 0.1 to 1 µM.
In the case of `CC1N(C2c3ccccc3SCc3c2ccc(F)c3F)n2ccc(=O)c(O)c2C(=O)C12CC2` (stereo not drawn) [Compound 21], the EC50 is reported as 0.1 to 1 µM.
For `O=C1c2c(O)c(=O)ccn2N(C2c3ccc(F)cc3CSc3ccccc32)CC12CC2` (stereo not drawn) [Compound 8], the EC50 was less than 0.1 µM.
Work on `CCOC(=O)C1CC12CN(C1c3ccccc3SCc3c1ccc(F)c3F)n1ccc(=O)c(O)c1C2=O` (stereo not drawn) [Compound 32] yielded an EC50 of 0.1 to 1 µM.
`CCC1CC12CN(C1c3ccccc3SCc3c1ccc(F)c3F)n1ccc(=O)c(O)c1C2=O` (stereo not drawn) [Compound 37] showed an EC50 of less than 0.1 µM.
Work on `COCC1CC12CN(C1c3ccccc3SCc3c1ccc(F)c3F)n1ccc(=O)c(O)c1C2=O` (stereo not drawn) [Compound 38] yielded an EC50 of less than 0.1 µM.
`Cc1cccc2c1SCc1c(ccc(F)c1F)C2N1CC2(CC2C)C(=O)c2c(O)c(=O)ccn21` (stereo not drawn) [Compound 36] gave an EC50 of 0.1 to 1 µM.
With `Cc1cccc2c1SCc1c(F)cccc1C2N1CC2(CC2)C(=O)c2c(O)c(=O)ccn21` (stereo not drawn) [Compound 10] the EC50 was 0.1 to 1 µM.
In the case of `C=CC1N(C2c3ccccc3SCc3c2ccc(F)c3F)n2ccc(=O)c(O)c2C(=O)C12CC2` (stereo not drawn) [Compound 25], the EC50 is reported as 0.1 to 1 µM.
`O=C1c2c(O)c(=O)ccn2N(C2c3ccc(F)c(F)c3CSc3c(Cl)cccc32)CC12CC2` (stereo not drawn) [Compound 18] gave an EC50 of 0.1 to 1 µM.
In the case of `O=C1c2c(O)c(=O)ccn2N(C2c3ccccc3CSc3c(F)cccc32)CC12CC2` (stereo not drawn) [Compound 9], the EC50 is reported as less than 0.1 µM.
Compound `O=C1c2c(O)c(=O)ccn2N(C2c3cccc(F)c3CSc3c(Cl)cccc32)CC12CC2` (stereo not drawn) [Compound 12] has an EC50 of 0.1 to 1 µM.
Compound `O=C1c2c(O)c(=O)ccn2N(C2c3ccc(F)cc3COc3c(Cl)cccc32)CC12CC2` (stereo not drawn) [Compound 15] has an EC50 of less than 0.1 µM.
`O=C1c2c(O)c(=O)ccn2N(C2c3ccc(F)cc3CSc3c(Cl)cccc32)CC12CC2` (stereo not drawn) [Compound 3] showed an EC50 of less than 0.1 µM.
`Cc1cccc2c1SCc1c(ccc(F)c1F)C2N1C(C)C2(CC2)C(=O)c2c(O)c(=O)ccn21` (stereo not drawn) [Compound 27] showed an EC50 of 0.1 to 1 µM.
`O=C1c2c(O)c(=O)ccn2N(C2c3ccccc3SCc3cccc(Br)c32)CC12CC2` (stereo not drawn) [Compound 29] was tested, and the EC50 was 0.1 to 1 µM.
With `O=C1c2c(O)c(=O)ccn2N(C2c3ccc(Cl)cc3CSc3c(F)cccc32)CC12CC2` (stereo not drawn) [Compound 14] the EC50 was less than 0.1 µM.
Work on `O=C1c2c(O)c(=O)ccn2N(C2c3ccccc3SCc3c2ccc(F)c3F)CC12CC2` (stereo not drawn) [Compound 2] yielded an EC50 of less than 0.1 µM.
In the case of `O=C1c2c(O)c(=O)ccn2N(C2c3ccccc3SCc3c(F)cccc32)CC12CC2` (stereo not drawn) [Compound 1, 1-(1-Fluoro-5,11-dihydro-10-thia-dibenzo[a,d]cyclohepten-5-yl)-5-hydroxy-3,3-cyclopropyl-2,3-dihydro-1H-pyrido[1,2-b]pyridazine-4,6-dione], the EC50 is reported as 0.1 to 1 µM.
For `O=C1c2c(O)c(=O)ccn2N(C2c3ccc(Cl)c(F)c3CSc3c(Cl)cccc32)CC12CC2` (stereo not drawn) [Compound 23], the EC50 was 0.1 to 1 µM.
`O=C1c2c(O)c(=O)ccn2N(C2c3ccc(F)cc3CSc3c(F)cccc32)CC12CC2` (stereo not drawn) [Compound 5] was tested, and the EC50 was less than 0.1 µM.
`O=C1c2c(O)c(=O)ccn2N(C2c3ccccc3SCc3c2ccc(F)c3F)CC12CC2COCc1ccccc1` (stereo not drawn) [Compound 34] gave an EC50 of 0.1 to 1 µM.
For `O=C(O)C1CC12CN(C1c3ccccc3SCc3c1ccc(F)c3F)n1ccc(=O)c(O)c1C2=O` (stereo not drawn) [Compound 33], the EC50 was 0.1 to 1 µM.
For `Cc1cc(=O)c(O)c2n1N(C1c3ccccc3SCc3c1ccc(F)c3F)CC1(CC1)C2=O` (stereo not drawn) [Compound 28], the EC50 was 0.1 to 1 µM.
